The results in this text go back to US8241647B2, “Amphiphilic molecule, molecular assembly comprising the amphiphilic molecule, and use of the molecular assembly” (Waseda University, priority 2007, dated 2012).

A short description of data set [1]: Measurement of zeta potential of liposomes. It counts as physicochemical. The conditions noted are these: 37°C. The protocol: Portions of the prepared liposome ([lipid]=10 mg/ml) were respectively added to acetate buffers with different pHs (7.4, 7, 6, 5, 4) (30 mM) to the final concentration of [lipid]=1 mg/mL, and then the zeta potential at 37° C. was measured. Zetasizer 4 manufactured by Malvern was used. A capillary cell was filled with a liposome-dispersed liquid obtained by dilution to the measurement concentration, and the measurement was performed at 37° C. 3 times.
Portions of the prepared liposome ([lipid]=10 mg/ml) were respectively added to acetate buffers with different pHs (7.4, 7, 6, 5, 4) (20 mM) to the final concentration of [lipid]=1 mg/mL, and then the zeta potential at 37° C. was measured.
Portions of each of the prepared liposomes ([lipid]=10 mg/ml) were respectively added to acetate buffers with different pHs (7.4, 7, 6, 5, 4) (20 mM) to the final concentration of [lipid]=1 mg/mL, and then the zeta potential at 37° C. was measured.

The nature of data set [2]: Preparation of liposome from mixed lipid (dispersion in water, high-pressure extrusion). It counts as physicochemical. The conditions noted are these: mixed lipid compound/cholesterol/PEG-Glu2C18 dispersed in water, high-pressure extrusion 0.22 μm. As to the method:
Compound 7, 8 or 9 (0.177 mmol), cholesterol (0.179 mmol) and PEG-Glu2C18 (1.0 μmol) were dissolved in benzene, and the mixture was freeze-dried to prepare a mixed lipid. 20 mg of this mixed lipid was dispersed in 1 mL of water for injection, and the resultant mixture was stirred for 6 hours. After that, liposome having a particle size of about 240 nm was prepared by means of the high-pressure extrusion method (final pore diameter: 0.22 μm).
Compound 3, 12 or 13 (0.177 mmol), cholesterol (0.179 mmol) and PEG-Glu2C18 (1.0 mmol) were dissolved in benzene, and the mixture was freeze-dried to prepare a mixed lipid. 20 mg of this mixed lipid was dispersed in 1 mL of water for injection, and the resultant mixture was stirred for 6 hours. After that, liposome having a particle size of about 240 nm was prepared by means of the high-pressure extrusion method (final pore diameter: 0.22 μm).

Each structure is given as a SMILES string.

Regarding `CCCCCCCCCCCCCCCCOC(=O)CCC(NC(=O)C(CCCCNC(=O)C(N)CCC(=O)O)NC(=O)C(N)CCC(=O)O)C(=O)OCCCCCCCCCCCCCCCC` (stereo not shown) [Compound 3], the “zeta potential of the liposome” value in data set [1] (liposome Compound 3/cholesterol/PEG-Glu2C18 (5/5/0.03), pH 7.4) is reported as “negative”. Besides, in data set [1] (liposome Compound 3/cholesterol/PEG-Glu2C18 (5/5/0.03 molar ratio), acetate buffers pH 7.4-4 (30 mM)), the “zeta potential as pH was decreased” value is given as “changed from negative to positive”. For the same molecule, the “pH at which the zeta potential changed from negative to positive” value in data set [1] (liposome compound/cholesterol/PEG-Glu2C18 (5/5/0.03 molar ratio), acetate buffers 20 mM) was “about 5.7”. Besides, the “liposome formation with the compound as main component” value in data set [2] is “liposome was formed”.
